Target: Human immunodeficiency virus type 1 protease (Human immunodeficiency virus 1, UniProt Q72874)
Assay: Inhibitory activity was determined against HIV type 1 protease

Compound	Ki [nM]
COc1ccc(CN[C@@H](C(=O)N[C@H](C(=O)NCc2nc3ccccc3[nH]2)C(C)C)[C@H](O)[C@H](Cc2ccccc2)NC(=O)OC(C)(C)C)cc1	7.76
CC(C)[C@H](N)C(=O)C[C@@H](Cc1ccccc1)[C@@H](O)[C@H]1CCc2ccc(cc2)OCCOCCOCCCOCCNC(=O)[C@H](C(C)C)CC1=O	7.59
COc1ccc(CN[C@@H](C(=O)N[C@H](C(=O)NCc2nc3ccccc3[nH]2)C(C)C)[C@H](O)[C@@H](N)Cc2ccccc2)cc1	229

More lines, now with the values ahead:

Ki [nM]	Compound
141	CC(C)[C@H](NC(=O)OCc1ccccc1)C(=O)N[C@@H](Cc1ccccc1)[C@@H](O)[C@H](NCc1ccccc1)C(=O)N[C@H](C(=O)NCc1cccnc1)C(C)C
15.1	COc1ccc(CN[C@@H](C(=O)N[C@H](C(=O)NCn2nnc3ccccc32)C(C)C)[C@H](O)[C@H](Cc2ccccc2)NC(=O)[C@@H](NC(=O)OCc2ccccc2)C(C)C)cc1
24	CC(C)[C@H](NC(=O)[C@H](NCc1ccccc1)[C@H](O)[C@H](Cc1ccccc1)NC(=O)[C@H](CC(N)=O)NC(=O)c1ccc2ccccc2n1)C(=O)NCc1ccccc1

Source: ChEMBL document CHEMBL1128211, “3D-quantitative structure-activity relationships of human immunodeficiency virus type-1 proteinase inhibitors: comparative molecular field analysis of 2-heterosubstituted statine derivatives-implications for the design of novel inhibitors” (J Med Chem, 1995)
